Assay [1] relates to nitric oxide production in LPS-treated BV2 cells. In words: Nitric oxide production (Griess) in LPS-treated BV2 cells. It is filed as cell-based, mouse. The conditions noted are these: LPS (100 ng/ml) 24 hours, Griess reagent, cell type not stated in Table 1, read-out: IC50 (NO production). As for the experimental part:
BV2 cells were seeded at a density of 4 x 10^5 cells/well into 96-well plates, and primary microglial cells isolated from the brain of […] ICR mice were seeded at a density of 4 x 10^5 cells/well into 24-well plates.
The culture media were collected and measured for NO production using a Griess reagent solution (1% sulfanilamide and 0.1% N-1-naphthyl ethylenediamine dihydrochloride in 5% phosphoric acid). Briefly, a total of 50 µL of the supernatant was transferred to new 96-well plates and mixed with the same volume of the Griess reagent solution, followed by measuring OD at 570 nm. In addition, the cell viability was assayed in the same manner as in Experimental Example 2.

The test system of assay [2] is N2a cells. Description: Neurite outgrowth in N2a cells (Incucyte). It is filed as cell-based, mouse. The conditions noted are these: 5 µM, FIGS. 14a and 14b. As to the method: N2a cells were aliquoted at a density of 1x10^4 cells/well into 24-well plates, treated with daidzein, o-desmethylangolensin, S-equal, SPA1413 and SPA1426 at 5 µM, and evaluated for neurite outgrowth by the real-time cell monitoring system InCucyte. The cells were photographed every 2 hours, and the neurites were counted through Incucyte software.

IC50 and neurite outgrowth data for four compounds are collected here from US20230330059A1, “3-PHENYL-2H-CHROMENE DERIVATIVE AND PHARMACEUTICAL COMPOSITION FOR PREVENTING OR TREATING ALZHEIMER'S, CONTAINING SAME” (NEUROBIONET, INC., priority 2020, published 2023).

pIC50: −log10 of the molar value. Where two headings read alike, the source gives them in different places.

A word on the pIC50: it is the IC50 on a negative log10 scale, so that one unit is a factor of ten.

For the compound `O=c1c(-c2ccc(O)cc2)coc2cc(O)ccc12` [Daidzein, reference compound], in assay [1] (Mus musculus, BV-2), the pIC50 was 4.06. Besides, in assay [2], the neurite outgrowth entry is “significantly increased”.

For `CNC(=N)NCCC[C@H](N)C(=O)O` [L-NMMA, reference compound], the pIC50 in assay [1] was 4.82.

For `CC(C(=O)c1ccc(O)cc1O)c1ccc(O)cc1` (centres unmarked) [O-DMA, o-desmethylangolensin, reference compound], in assay [1], the negative-log IC50 (pIC50) was 4.46.

As for `Oc1ccc([C@H]2COc3cc(O)ccc3C2)cc1` [S-equol, reference compound], the pIC50 in assay [1] was 4.93.
